For the assay, the target named is T1, P-selectin/PSGL-1 interaction (Homo sapiens, UniProt P16109).
T1 construct: comprised of the lectin and epidermal growth factor-like (EGF) domains expressed in CHO cells; made in house; host or cells: CHO cells (P-LE)
T1 sequence (P16109 42-198): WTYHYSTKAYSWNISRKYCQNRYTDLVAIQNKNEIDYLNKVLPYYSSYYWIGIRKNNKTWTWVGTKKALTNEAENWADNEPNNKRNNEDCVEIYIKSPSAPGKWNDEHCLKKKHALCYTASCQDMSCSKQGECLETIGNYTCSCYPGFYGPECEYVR
Put plainly: Biacore P-Selectin/PSGL-1 Inhibition Assay (surface plasmon resonance). To be noted: 250 uM test compound, 500 nM P.LE, immobilized PSGL-1 19ek, 10% DMSO, pH 7.4. In kind it is binding. The method, then: Surface plasmon resonance assays were performed on a Biacore 3000 instrument (Biacore Inc. Piscataway, N.J.) at 25° C. at a flow rate of 30 μL/minute and each assay consisted of a 60-second equilibration, a 60-μL sample injection (kinject), and a 300-second dissociation.
A purified, monomeric, truncated form of human PSGL-1, “19ek”, that contained all the necessary P-selectin binding determinants (see Goetz, et al., J. Cell Biol., 1997, 137: 509-519; and Sako, et al., Cell, 1995, 83: 323-331) was biotinylated via amine chemistry (Sulfo-NHS-LC-Biotin, Peirce) at a unique C-terminal lysine residue (see Somers, et al., Cell, 2000, 103: 467-479) and immobilized on a Biacore SA sensor chip (Biacore Inc.), using an HBS-EP buffer (Biacore Inc.), and the target 600-700 RU. The coated chip was re-equilibrated with an HBS-P buffer (Biacore Inc.) to which 1 mM CaCl2 and 1 mM MgCl2 (both from Fisher) were added to ensure sufficient calcium for the calcium-dependent interaction between the receptor and the ligand.
Test compounds were incubated for 1 hour in a 1.1× Biacore assay buffer. Each solution was centrifuged through a 0.2 µm filter, using a 96-well plate format (Millipore). Glycyrrhizin tri-sodium salt (TCI) was prepared as a positive control in parallel with the test compounds, in the same manner described above.
A soluble recombinant truncated form of human P-selectin, P-LE, comprised of the lectin and epidermal growth factor-like (EGF) domains expressed in CHO cells (see Somers, et al., Cell, 2000, 103: 467-479) was added to each filtered test compound solution. Final concentrations of reagents were 500 nM P.LE, 250 or 500 μM test compound (depending on structure) or 1 mM glycyrrhizin, 10% DMSO, and 1× Biacore buffer ([…], 150 mM NaCl, 1 mM CaCl2, and 1 mM MgCl2 (all reagents from Fisher)), with a pH of 7.4. Compounds active at 250 μM were titrated to further define activity. Test samples were supplied to the Biacore instrument in a 96-well plate.
The Biacore raw data file was exported as a text file to an Excel spreadsheet, where the buffer blanks bracketing the samples were averaged for each Biacore instrument flow cell (Fc), and subtracted from the averaged uninhibited P.LE samples and from all the other samples. The reference signal from Fcl (uncoated) was then subtracted from its corresponding active (coated) signal for each injection, a process known as double referencing (see Myszka, J. Mol. Recognit., 1999, 12(5): 279-284). The percent inhibition of binding was calculated by dividing the reference-subtracted inhibited signal by the reference-subtracted uninhibited signal, subtracting this value from 1, and multiplying the resulting value by 100. The replicate percent inhibition values were averaged and expressed as the mean ±standard deviation. The inter-experiment standard deviation of calculated percent inhibitions in the Biacore assay was ±5.
(SPR reads the build-up and loss of mass on a sensor chip optically.)
As a reminder, the inhibition is the drop in the measured response relative to a control, in per cent. Compound `O=C(O)c1c(O)c(C2(c3ccccc3)CC2)nc2ccc(OC(F)(F)F)cc12` [Compound 29, 3-hydroxy-2-(1-phenylcyclopropyl)-6-(trifluoromethoxy)quinoline-4-carboxylic acid] yielded an inhibition at 250 µM of 10%.

Regarding `O=C(O)c1c(O)c(C2(c3ccccc3)CC2)nc2ccc(Cl)cc12` [Compound 30, 6-chloro-3-hydroxy-2-(1-phenylcyclopropyl)quinoline-4-carboxylic acid], the inhibition at 250 µM was not above 10%.

`Cc1cccc2c(C(=O)O)c(O)c(C3(c4ccccc4)CC3)nc12` [Compound 31, 3-hydroxy-8-methyl-2-(1-phenylcyclopropyl)quinoline-4-carboxylic acid] yielded an inhibition at 250 µM not above 10%.

`O=C(O)c1c(O)c(C2(c3ccccc3)CC2)nc2ccc(C(F)(F)F)cc12` [Compound 32, 3-hydroxy-2-(1-phenylcyclopropyl)-6-(trifluoromethyl)quinoline-4-carboxylic acid] had an inhibition at 250 µM not above 10%.

`Cc1ccc2nc(C3(c4ccccc4)CC3)c(O)c(C(=O)O)c2c1` [Compound 33, 3-hydroxy-6-methyl-2-(1-phenylcyclopropyl)quinoline-4-carboxylic acid] returned an inhibition at 250 µM not above 10%.

Take `O=C(O)c1c(O)c(C2(c3ccccc3)CC2)nc2c(C(F)(F)F)cccc12` [Compound 34, 3-hydroxy-2-(1-phenylcyclopropyl)-8-(trifluoromethyl)quinoline-4-carboxylic acid]: the inhibition at 250 µM is 44%.

As to `O=C(O)c1c(O)c(C2(c3ccccc3)CC2)nc2c(-c3ccsc3)cccc12` [Compound 35, 3-hydroxy-2-(1-phenylcyclopropyl)-8-(thiophen-3-yl)quinoline-4-carboxylic acid], testing at 250 µM gave an inhibition of 70%.

`O=C(O)c1c(O)c(C2(c3ccc(Cl)cc3)CC2)nc2c3c(ccc12)CCCC3` [Compound 36, 2-(1-(4-chlorophenyl)cyclopropyl)-3-hydroxy-7,8,9,10-tetrahydrobenzo[h]quinoline-4-carboxylic acid] yielded an inhibition at 250 µM of 67%.

In turn, `O=C(O)c1c(O)c(C2(c3ccc(Cl)cc3)CC2)nc2c(-c3ccsc3)cccc12` [Compound 37, 2-(1-(4-chlorophenyl)cyclopropyl)-3-hydroxy-8-(thiophen-3-yl)quinoline-4-carboxylic acid] yielded an inhibition at 250 µM of 78%.

`O=C(O)c1c(O)c(C2(c3ccc(Cl)cc3)CC2)nc2c(C(F)(F)F)cccc12` [Compound 38, 2-(1-(4-chlorophenyl)cyclopropyl)-3-hydroxy-8-(trifluoromethyl)quinoline-4-carboxylic acid] came in with an inhibition at 250 µM of 52%.

For the compound `CC(C)c1cccc2c(C(=O)O)c(O)c(C3(c4ccc(Cl)cc4)CC3)nc12` [Compound 39, 2-(1-(4-chlorophenyl)cyclopropyl)-3-hydroxy-8-isopropylquinoline-4-carboxylic acid], the inhibition at 250 µM amounted to 66%.

Take `Cc1ccc2c(C(=O)O)c(O)c(C3(c4ccc(Cl)cc4)CC3)nc2c1C` [Compound 40, 2-(1-(4-chlorophenyl)cyclopropyl)-3-hydroxy-7,8-dimethylquinoline-4-carboxylic acid]: 250 µM produced 53% inhibition.

In turn, `O=C(O)c1c(O)c(C2(c3ccc(Cl)cc3)CC2)nc2c(C(O)(C(F)(F)F)C(F)(F)F)cccc12` [Compound 41, 2-(1-(4-chlorophenyl)cyclopropyl)-8-(1,1,1,3,3,3-hexafluoro-2-hydroxypropan-2-yl)-3-hydroxyquinoline-4-carboxylic acid] returned an inhibition at 250 µM not above 10%.

As to `O=C(O)c1c(O)c(C2(c3ccccc3)CC2)nc2c3c(ccc12)CCCC3` [Compound 42, 3-hydroxy-2-(1-phenylcyclopropyl)-7,8,9,10-tetrahydrobenzo[h]quinoline-4-carboxylic acid], the inhibition at 250 µM was found to be 52%.

Consider `Cc1ccc2c(C(=O)O)c(O)c(C3(c4ccccc4)CC3)nc2c1C` [Compound 43, 3-hydroxy-7,8-dimethyl-2-(1-phenylcyclopropyl)quinoline-4-carboxylic acid], for which the inhibition at 250 µM turned out to be 18%.

Turning to `CC(C)c1cccc2c(C(=O)O)c(O)c(C3(c4ccccc4)CC3)nc12` [Compound 44, 3-hydroxy-8-isopropyl-2-(1-phenylcyclopropyl)quinoline-4-carboxylic acid], at 250 µM the inhibition was 63%.

Compound `O=C(O)c1c(O)c(C2(c3ccccc3)CC2)nc2c(-c3ccccc3)cccc12` [Compound 45, 3-hydroxy-8-phenyl-2-(1-Phenylcyclopropyl)quinoline-4-carboxylic acid] displayed an inhibition at 250 µM of 37%.

For `O=C(O)c1c(O)c(C2(c3ccccc3)CC2)nc2c(OC(F)(F)F)cccc12` [Compound 46, 3-hydroxy-2-(1-phenylcyclopropyl)-8-(trifluoromethoxy)quinoline-4-carboxylic acid], the inhibition at 250 µM was not above 10%.

With `O=C(O)c1c(O)c(C2(c3ccccc3)CC2)nc2c(Cl)cccc12` [Compound 47, 8-chloro-3-hydroxy-2-(1-phenylcyclopropyl)quinoline-4-carboxylic acid], the inhibition at 250 µM was not above 10%.

`O=C(O)c1c(O)c(C2(c3ccccc3)CC2)nc2ccc(C(O)(C(F)(F)F)C(F)(F)F)cc12` [Compound 48, 6-(1,1,1,3,3,3-hexafluoro-2-hydroxypropan-2-yl)-3-hydroxy-2-(1-phenylcyclopropyl)quinoline-4-carboxylic acid] showed an inhibition at 250 µM not above 10%.

For the compound `O=C(O)c1c(O)c(C2(c3ccccc3)CC2)nc2c(C(O)(C(F)(F)F)C(F)(F)F)cccc12` [Compound 49, 8-(1,1,1,3,3,3-hexafluoro-2-hydroxypropan-2-yl)-3-hydroxy-2-(1-phenylcyclopropyl)quinoline-4-carboxylic acid], 250 µM produced 58% inhibition.

As to `COc1ccc(C2(c3nc4c(C(F)(F)F)cccc4c(C(=O)O)c3O)CC2)cc1` [Compound 50, 3-hydroxy-2-(1-(4-methoxyphenyl)cyclopropyl)-8-(trifluoromethyl)quinoline-4-carboxylic acid], the inhibition at 250 µM was 36%.

In turn, `COc1ccc(C2(c3nc4c5c(ccc4c(C(=O)O)c3O)CCCC5)CC2)cc1` [Compound 51, 3-hydroxy-2-(1-(4-methoxyphenyl)cyclopropyl)-7,8,9,10-tetrahydrobenzo[h]quinoline-4-carboxylic acid] showed an inhibition at 250 µM of 38%.

In turn, `O=C(O)c1c(O)c(C2(c3ccc(C(F)(F)F)cc3)CC2)nc2c(C(F)(F)F)cccc12` [Compound 52, 3-hydroxy-8-(trifluoromethyl)-2-(1-(4-(trifluoromethyl)phenyl)cyclopropyl)quinoline-4-carboxylic acid] had an inhibition at 250 µM of 47%.

`O=C(O)c1c(O)c(C2(c3ccc(Br)cc3)CC2)nc2c(C(F)(F)F)cccc12` [Compound 53, 2-(1-(4-bromophenyl)cyclopropyl)-3-hydroxy-8-(trifluoromethyl)quinoline-4-carboxylic acid] came in with an inhibition at 250 µM of 64%.

Take `O=C(O)c1c(O)c(C2(c3cccc(Cl)c3)CC2)nc2c(C(F)(F)F)cccc12` [Compound 54, 2-(1-(3-chlorophenyl)cyclopropyl)-3-hydroxy-8-(trifluoromethyl)quinoline-4-carboxylic acid]: at 250 µM the inhibition was 66%.

As to `O=C(O)c1c(O)c(C2(c3ccccc3Cl)CC2)nc2c(C(F)(F)F)cccc12` [Compound 55, 2-(1-(2-chlorophenyl)cyclopropyl)-3-hydroxy-8-(trifluoromethyl)quinoline-4-carboxylic acid], the inhibition at 250 µM came to 57%.

With `O=C(O)c1c(O)c(C2(c3ccc(OC(F)(F)F)cc3)CC2)nc2c(C(F)(F)F)cccc12` [Compound 56], the inhibition at 250 µM came out at 29%.

Compound `O=C(O)c1c(O)c(C2(c3cccc(C(F)(F)F)c3)CC2)nc2c(C(F)(F)F)cccc12` [Compound 57, 3-hydroxy-8-(trifluoromethyl)-2-(1-(3-(trifluoromethyl)phenyl)cyclopropyl)quinoline-4-carboxylic acid] registered an inhibition at 250 µM of 42%.

For the origin of these results see patent US20080255192A1, “Methods and Compositions for Selectin Inhibition” (Wyeth, priority 2007, published 2008).
